Patent publication US20040176294A1, “Use of thyroid-stimulating hormone to induce lipolysis” (priority 2003, published 2004)
Blank lines part the entries; values can stand above or below the compound they belong to.

How the values were obtained:
male ob/ob mice [1] = assay: in vivo; details: mouse
Experimental: (§1) 11-week old male ob/ob mice were individually caged and given a standard lab chow (4% fat) with free access to food and water. Animals were assigned to a treatment group (n=7-8, average weight 54.3+/−0.3 g per group), kept on a 12 hour dark cycle (6 PM to 6 AM), and injected each day between 7 and 9 AM. Chow consumed by each animal was weighed twice weekly. All animals received treatments IP with an injection volume of 0.1 ml. […] Thyroid hormone (T4) was administered at 1.5 μg/mouse for 4 days, reduced to 1 [μg/mouse for 10 days, and returned to 1.5 μg/mouse for the next 14 days. The vehicle controls received sterile saline.
(§2) After 25 days of treatment as described above, blood was sampled from all treated animals (n=7-8/group), serum separated, and analyzed for total T4 by a commercially available kit (Biocheck, Burlingame, Calif.).

male ob/ob mice [2] = assay: Chronic treatment of ob/ob mice: intraperitoneal glucose tolerance test (IPGTT); format: in vivo; details: 4 weeks of treatment; for baseline blood glucose: fasted four hours, n=4; for insulin sensitivity and glucose clearance versus vehicle: IPGTT glucose […]
Experimental: as §1
Following 4 weeks of daily treatment as described above, mice (n=4/group) were fasted for four hours immediately following the beginning of the light cycle, and a blood sample obtained before IP injection of a glucose solution (1.5 g/kg body weight). Blood samples were obtained at 20, 40, and 120 minutes following injection to evaluate changes in serum glucose and insulin. Glucose concentrations were determined with a Freestyle blood glucose monitor (Therasense Corp.), and insulin concentrations were determined with a commercial ELISA kit (Alpco Diagnostics, Windham N. H.).

male ob/ob mice [3] = assay: Chronic treatment of ob/ob mice: adipose tissue depot mass; format: in vivo; details: after 4 weeks of treatment, n=4
Experimental: as §1
Four animals from each group were analyzed for evaluation of changes in adipose tissue depot mass after 4 weeks of treatment. Following sacrifice, brown scapular fat (IBAT) and intra-abdominal fat were dissected and the tissues weighed. […] Elevated thyroid hormone levels are known to act to stimulate]BAT. […] The mesangial fat depot was dissected and removed from the colon for weight determination. Mesangial fat is white adipose tissue and is only readily visualized and dissected in obese mice. Mesangial white fat was removed by carefully stripping the fat, associated matrix and vascular supporting bed from the length of the colon.

male ob/ob mice [4] = assay: Acute stimulation of lipolysis in vivo (serum glycerol and FFA); details: CL 1 mg/kg IP
Experimental: TSH, the β3-adrenoreceptor agonist CL 316,243 (CL), and saline vehicle were examined for stimulation of lipolysis in mice following an overnight fast. […] Lipolysis was assessed as the change in serum glycerol or FFA compared to baseline.
C57BL/6 male ob/ob mice, age 10 weeks, were grouped to normalize weight (n=7-8 for each treatment; average group weight=37.8 g+/−0.4 g). Mice were housed individually for 18 hours prior to treatment, at which time food was withdrawn, with free access to water given. At approximately 8 a.m., the subjects were anesthetized with halothane and blood samples taken by retro-orbital eye bleeds. The blood was allowed to clot, and the serum was separated by centrifugation and frozen for later analysis. Test substances were administered by IP injection in a volume of 0.1 ml, and the animals replaced in their cages for 2 hours with free access to water. At 2 hours, the mice were sacrificed and blood drawn by cardiac puncture.
For measuring free fatty acids in serum, the method previously described for measuring free fatty acids in conditioned medium was followed, with the following modifications. […] The absorbance at 530 nm was measured on the Wallac Victor2 Multilabel counter. […]
Sigma reagent A was reconstituted to 0.5× the recommended concentration. […] The absorbance at 530 nm was measured on the Wallac Victor2 Multilabel counter.

male ob/ob mice [5] = assay: Chronic treatment of ob/ob mice: serum lipid analysis; format: in vivo; details: 5 weeks of treatment, fasted 4 hours
Experimental: as §1
The study set used for the IPGTT was treated an additional 7 days before sacrifice (total treatment time of 5 weeks). Subject animals were fasted for 4 hours at the beginning of the light cycle, and serum was obtained at sacrifice under isoflurane anesthesia. Triglyceride and total cholesterol levels were determined with the Cholestech LDX blood analyzer (Cholestech Corporation, Hayward Calif.).

male ob/ob mice [6] = assay: Chronic treatment of ob/ob mice: liver steatosis histology score; format: in vivo; details: H&E sections, n=4, vehicle score 4
Experimental: as §1
Liver sections were dissected from all treatment groups described above and mounted in paraffin following fixation with NBS-formalin. Sections were mounted and stained with hematotoxylin and eosin (H&E) for visualization of hepatic structural changes. The extent of liver steatosis was evaluated on a four-point scale, […], with zero displaying no signs of liver steatotosis, and 4, representing pronounced macrovesicular and microvesicular steatosis.

in vivo = assay: in vivo; parameters: species or system mice; details: male, ob/ob, mouse
Experimental: as §1, §2

male ob/ob mice [7] = assay: Chronic treatment of ob/ob mice: body weight and food intake; format: in vivo; details: daily IP treatment, 28 days
Experimental: as §1
Body weight changes were assessed as the percentage increase in body weight from the beginning of the study.

[8] = system: differentiated 3T3 L1 adipocytes; assay: CRE-luciferase reporter (cAMP) assay in differentiated 3T3 L1 adipocytes; format: cell-based, murine; details: differentiated 3T3 L1 cells, 4 hours
Description: (§3) 3T3 L1 fibroblasts were differentiated into adipocytes and the cells were transduced with recombinant adenovirus containing a reporter construct, a firefly luciferase gene under the control of cAMP response element (CRE) enhancer sequences. This assay system detects cAMP-mediated gene induction downstream of activation of Gs-coupled G-protein coupled receptors (GPCR's). […] In a separate experiment, undifferentiated 3T3 L1 fibroblasts were transduced with the recombinant adenovirus. […] In another experiment, human primary adipocytes were also transduced with the recombinant adenovirus containing a reporter construct.
(§4) Cells were cultured at 37° C. in an 8% CO2 humidified incubator. Cells were seeded in collagen-coated 96-well plates (Becton Dickinson, cat. # 356407) at a density of 5,000 cells per well. Two days later, differentiation medium was added as follows: DMEM high glucose containing 10% fetal bovine serum (Hyclone, cat. # SH30071), 1 μg/ml insulin, 1 μM dexamethasone, and 0.5 mM 3-isobutyl-methyl xanthine (ICN, cat. #195262). The cells were incubated at 37° C. in 8% CO2 for 4 days and the medium replaced with DMEM high glucose containing 10% fetal bovine serum and 1 μg/ml insulin. The cells were incubated at 37° C. in 8% CO2 for 3 days, then the medium was replaced with DMEM high glucose containing 10% fetal bovine serum.

human primary adipocytes = assay: CRE-luciferase reporter (cAMP) assay in primary human adipocytes; format: cell-based; details: 4 hours
Description: as §3, §4

SMILES: C[C@H](Cc1ccc2c(c1)OC(C(=O)[O-])(C(=O)[O-])O2)NC[C@H](O)c1cccc(Cl)c1.[Na+].[Na+] [CL 316,243]
- total T4 in serum (male ob/ob mice [1]): 5.14 ± 0.19 µg/dL
- baseline blood glucose (male ob/ob mice [2]): 139 ± 9 mg/dL
- insulin sensitivity and glucose clearance versus vehicle (male ob/ob mice [2]): exhibited increased insulin sensitivity and increased clearance of the glucose load
- brown scapular fat (IBAT) mass (male ob/ob mice [3]): 0.87 ± 0.03 g
- mesangial white fat depot weight (male ob/ob mice [3]): 1.53 ± 0.10 g
- serum glycerol and FFA levels (male ob/ob mice [4]): significantly elevated serum glycerol and FFA levels
- serum triglyceride (male ob/ob mice [5]): 191 ± 9 mg/dL
- total cholesterol (male ob/ob mice [5]): 198 ± 7 mg/dL
- average liver steatosis score (male ob/ob mice [6]): 1

- concentration at 25 days (in vivo): 90.4 ng/mL
SMILES: N[C@@H](Cc1cc(I)c(Oc2cc(I)c(O)c(I)c2)c(I)c1)C(=O)O [thyroxine]
- baseline blood glucose (male ob/ob mice [2]): 252 ± 34 mg/dL
- insulin sensitivity and glucose clearance versus vehicle (male ob/ob mice [2]): did not exhibit increased glucose clearance
- brown scapular fat (IBAT) mass (male ob/ob mice [3]): 1.26 ± 0.03 g
- mesangial white fat depot weight (male ob/ob mice [3]): 1.18 ± 0.11 g
- serum triglyceride (male ob/ob mice [5]): 297 ± 30 mg/dL
- total cholesterol (male ob/ob mice [5]): 231 ± 11 mg/dL
- average liver steatosis score (male ob/ob mice [6]): 3
- percentage increase in body weight from the beginning of the study (male ob/ob mice [7]): 9.4+/−0.5%

SMILES: CC(C)NCC(O)c1ccc(O)c(O)c1 (centres unmarked) [isoproterenol]
- induction of luciferase expression [8]: 50 fold
- induction of luciferase expression / reporter gene (human primary adipocytes): 22 fold
